Where a SMILES comes first, the peptide text is derived from it. The star is where a group is joined. X2 = O=C(O)C(F)(C(=O)O)*; X1 = O=C(O)C(C(=O)O)*
How the values were obtained:
[1] = Inhibition of binding to p85 Phosphatidylinositol 3-kinase C-terminal SH2 domain
[2] = molecular target: T1, Tyrosine-protein phosphatase non-receptor type 1 (Homo sapiens, UniProt P18031); assay: Inhibitory activity against Protein-tyrosine phosphatase 1B-mediated dephosphorylation of phosphorylated insulin receptor using (CHO) cell line transfected with an expression plasmid encoding the normal human insulin receptor [CHO/HIRc]
T1 sequence (P18031 whole entry): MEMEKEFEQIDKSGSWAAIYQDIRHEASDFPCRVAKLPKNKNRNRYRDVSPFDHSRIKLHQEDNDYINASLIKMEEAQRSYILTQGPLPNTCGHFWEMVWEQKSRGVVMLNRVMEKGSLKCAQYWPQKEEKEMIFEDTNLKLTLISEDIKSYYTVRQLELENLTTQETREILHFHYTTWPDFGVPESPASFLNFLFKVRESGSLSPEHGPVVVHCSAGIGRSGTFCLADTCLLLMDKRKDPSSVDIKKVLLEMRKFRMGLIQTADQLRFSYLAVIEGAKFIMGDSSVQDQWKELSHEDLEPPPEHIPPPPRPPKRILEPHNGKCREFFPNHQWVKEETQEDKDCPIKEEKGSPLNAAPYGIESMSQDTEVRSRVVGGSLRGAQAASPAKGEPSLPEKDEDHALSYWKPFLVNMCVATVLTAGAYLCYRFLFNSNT

[3] = Ionization constant (pKa2) by treating potentiometric titration data according to the method Noyes; assay type: physicochemical; conditions: read-out: pKa2

Compound | IC50 [1] | IC50 [2] | pKa [3]
CSCC[C@H](NC(=O)[C@@H]1CCCN1C(=O)[C@@H](NC(=O)[C@H](Cc1ccc(OC(C(=O)O)C(=O)O)cc1)NC(=O)[C@H](CC(=O)O)NC(C)=O)C(C)C)C(=O)N[C@@H](CC(C)C)C(N)=O (Ac-DY(X1)VPML-NH2) | 14 µM |  | 
CC(=O)N[C@@H](CC(=O)O)C(=O)N[C@@H](C)C(=O)N[C@@H](CC(=O)O)C(=O)N[C@@H](CCC(=O)O)C(=O)N[C@@H](Cc1ccc(OC(C(=O)O)C(=O)O)cc1)C(=O)N[C@@H](CC(C)C)C(N)=O (Ac-DADEY(X1)L-NH2) |  | 10 µM | 
O=C(O)C(Oc1ccc2cc(Br)ccc2c1)C(=O)O |  |  | 3.91
CC(=O)N[C@@H](CC(=O)O)C(=O)N[C@@H](C)C(=O)N[C@@H](CC(=O)O)C(=O)N[C@@H](CCC(=O)O)C(=O)N[C@@H](Cc1ccc(OC(F)(C(=O)O)C(=O)O)cc1)C(=O)N[C@@H](CC(C)C)C(N)=O (Ac-DADEY(X2)L-NH2) |  | 1 µM | 
O=C(O)C(F)(Oc1ccc2cc(Br)ccc2c1)C(=O)O |  |  | 2.84
CSCC[C@H](NC(=O)[C@@H]1CCCN1C(=O)[C@@H](NC(=O)[C@H](Cc1ccc(OC(F)(C(=O)O)C(=O)O)cc1)NC(=O)[C@H](CC(=O)O)NC(C)=O)C(C)C)C(=O)N[C@@H](CC(C)C)C(N)=O (Ac-DY(X2)VPML-NH2) | 18 µM |  | 

Source: ChEMBL document CHEMBL1129503, “4'-O-[2-(2-fluoromalonyl)]-L-tyrosine: a phosphotyrosyl mimic for the preparation of signal transduction inhibitory peptides” (J Med Chem, 1996)
